Source: patent US10112899B2 (ViiV HEALTHCARE UK LIMITED, priority 2014, dated 2018)

Test system: HIV in the HTLV-1 transformed cell line MT-4
Test: organism not typed
Type: cell-based
Details: MT4, 96 h, MT-4 cells; luciferase/cell titer glo readout after 96 hours; 10 point dose response

Row | SMILES | IC50
1 | Cc1ccc(-c2c(C)c3c(c(C)c2[C@H](OC(C)(C)C)C(=O)O)CN(C(=O)N2CCS(=O)(=O)CC2)C3)cc1 [Example 64, (2S)-2-(tert-butoxy)-2-[2-(1,1-dioxo-1λ^6,4-thiomorpholine-4-carbonyl)-4,7-dimethyl-6-(4-methylphenyl)-2,3-dihydro-1H-isoindol-5-yl]acetic acid] | 0.106 µM
2 | Cc1ccc(-c2c(C)c3c(c(C)c2[C@H](OC(C)(C)C)C(=O)O)CN(C(=O)N2CCCCCCC2)C3)cc1 [Example 65, (2S)-2-[2-(azocane-1-carbonyl)-4,7-dimethyl-6-(4-methylphenyl)-2,3-dihydro-1H-isoindol-5-yl]-2-(tert-butoxy)acetic acid] | 0.01 µM
3 | Cc1ccc(-c2c(C)c3c(c(C)c2[C@H](OC(C)(C)C)C(=O)O)CN(C(=O)N2CCCC(F)(F)C2)C3)cc1 [Example 66, (2S)-2-(tert-butoxy)-2-[2-(3,3-difluoropiperidine-1-carbonyl)-4,7-dimethyl-6-(4-methylphenyl)-2,3-dihydro-1H-isoindol-5-yl]acetic acid] | 0.006 µM
4 | Cc1ccc(-c2c(C)c3c(c(C)c2[C@H](OC(C)(C)C)C(=O)O)CN(C(=O)N(C)C2CCCCC2)C3)cc1 [Example 67, (2S)-2-(tert-butoxy)-2-{2-[cyclohexyl(methyl)carbamoyl]-4,7-dimethyl-6-(4-methylphenyl)-2,3-dihydro-1H-isoindol-5-yl}acetic acid] | 0.055 µM
5 | Cc1ccc(-c2c(C)c3c(c(C)c2[C@H](OC(C)(C)C)C(=O)O)CN(C(=O)N2CCC(F)(F)C2)C3)cc1 [Example 68, (2S)-2-(tert-butoxy)-2-[2-(3,3-difluoropyrrolidine-1-carbonyl)-4,7-dimethyl-6-(4-methylphenyl)-2,3-dihydro-1H-isoindol-5-yl]acetic acid] | 0.008 µM
6 | Cc1ccc(-c2c(C)c3c(c(C)c2[C@H](OC(C)(C)C)C(=O)O)CN(C(=O)N2CCCC[C@H]2C)C3)cc1 [Example 69, (2S)-2-(tert-butoxy)-2-[4,7-dimethyl-6-(4-methylphenyl)-2-[(2R)-2-methylpiperidine-1-carbonyl]-2,3-dihydro-1H-isoindol-5-yl]acetic acid] | 0.014 µM
7 | Cc1ccc(-c2c(C)c3c(c(C)c2[C@H](OC(C)(C)C)C(=O)O)CN(C(=O)NC2CCC2)C3)cc1 [Example 70, (2S)-2-(tert-butoxy)-2-[2-(cyclobutylcarbamoy)-4,7-dimethyl-6-(4-methylphenyl)-2,3-dihydro-1H-isoindol-5-yl]acetic acid] | 0.034 µM
8 | Cc1ccc(-c2c(C)c3c(c(C)c2[C@H](OC(C)(C)C)C(=O)O)CN(C(=O)N2CCN(C)CC2)C3)cc1 [Example 71, (2S)-2-(tert-butoxy)-2-[4,7-dimethyl-6-(4-methylphenyl)-2-(4-methylpiperazine-1-carbonyl)-2,3-dihydro-1H-isoindol-5-yl]acetic acid] | 0.276 µM
9 | Cc1ccc(-c2c(C)c3c(c(C)c2[C@H](OC(C)(C)C)C(=O)O)CN(C(=O)N2CCOC[C@H]2C)C3)cc1 [Example 72, (2S)-2-(tert-butoxy)-2-{4,7-dimethyl-2-[(3R)-3-methylmorpholine-4-carbonyl]-6-(4-methylphenyl)-2,3-dihydro-1H-isoindol-5-yl}acetic acid] | 0.016 µM
10 | Cc1ccc(-c2c(C)c3c(c(C)c2[C@H](OC(C)(C)C)C(=O)O)CN(C(=O)N2C[C@H](C)O[C@@H](C)C2)C3)cc1 [Example 73, (2S)-2-(tert-butoxy)-2-{2-[(2S,6S)-2,6-dimethylmorpholine-4-carbonyl]-4,7-dimethyl-6-(4-methylphenyl)-2,3-dihydro-1H-isoindol-5-yl}acetic acid] | 0.026 µM
11 | Cc1ccc(-c2c(C)c3c(c(C)c2[C@H](OC(C)(C)C)C(=O)O)CN(C(=O)NCC(C)(C)C)C3)cc1 [Example 74, (2S)-2-(tert-butoxy)-2-{2-[(2,2-dimethylpropyl)carbamoyl]-4,7-dimethyl-6-(4-methylphenyl)-2,3-dihydro-1H-isoindol-5-yl}acetic acid] | 0.021 µM
12 | Cc1ccc(-c2c(C)c3c(c(C)c2[C@H](OC(C)(C)C)C(=O)O)CN(C(=O)N2CC4CCC(C2)O4)C3)cc1 [Example 75, (2S)-2-(tert-butoxy)-2-[4,7-dimethyl-6-(4-methylphenyl)-2-{8-oxa-3-azabicyclo[3.2.1]octane-3-carbonyl}-2,3-dihydro-1H-isoindol-5-yl]acetic acid] | 0.034 µM
13 | Cc1ccc(-c2c(C)c3c(c(C)c2[C@H](OC(C)(C)C)C(=O)O)CN(C(=O)N2CCCOCC2)C3)cc1 [Example 76, (2S)-2-(tert-butoxy)-2-[4,7-dimethyl-6-(4-methylphenyl)-2-(1,4-oxazepane-4-carbonyl)-2,3-dihydro-1H-isoindol-5-yl]acetic acid] | 0.012 µM
14 | Cc1ccc(-c2c(C)c3c(c(C)c2[C@H](OC(C)(C)C)C(=O)O)CN(C(=O)N2CC[C@H](O)C2)C3)cc1 [Example 77, (2S)-2-(tert-butoxy)-2-{2-[(3S)-3-hydroxypyrrolidine-1-carbonyl]-4,7-dimethyl-6-(4-methylphenyl)-2,3-dihydro-1H-isoindol-5-yl}acetic acid] | 0.16 µM
15 | Cc1ccc(-c2c(C)c3c(c(C)c2[C@H](OC(C)(C)C)C(=O)O)CN(C(=O)N(C)CC2CCCCC2)C3)cc1 [Example 78, (2S)-2-(tert-butoxy)-2-{2-[(cyclohexylmethyl)(methyl)carbamoyl]-4,7-dimethyl-6-(4-methylphenyl)-2,3-dihydro-1H-isoindol-5-yl}acetic acid] | 0.126 µM
16 | Cc1ccc(-c2c(C)c3c(c(C)c2[C@H](OC(C)(C)C)C(=O)O)CN(C(=O)NCCOCc2ccccc2)C3)cc1 [Example 79, (2S)-2-(2-{[2-(benzyloxy)ethyl]carbamoyl}-4,7-dimethyl-6-(4-methylphenyl)-2,3-dihydro-1H-isoindol-5-yl)-2-(tert-butoxy)acetic acid] | 0.231 µM
17 | Cc1ccc(-c2c(C)c3c(c(C)c2[C@H](OC(C)(C)C)C(=O)O)CN(C(=O)N2CCN4CCC[C@@H]4C2)C3)cc1 [Example 80, (2S)-2-{2-[(8aR)-octahydropyrrolo[1,2-a]piperazine-2-carbonyl]-4,7-dimethyl-6-(4-methylphenyl)-2,3-dihydro-1H-isoindol-5-yl}-2-(tert-butoxy)acetic acid] | 0.381 µM
18 | Cc1ccc(-c2c(C)c3c(c(C)c2[C@H](OC(C)(C)C)C(=O)O)CN(C(=O)N2CCC(C)CC2)C3)cc1 [Example 81, (S)-2-(tert-butoxy)-2-(4,7-dimethyl-2-(4-methylpiperidine-1-carbonyl)-6-(p-tolyl)isoindolin-5-yl)acetic acid] | 0.016 µM
19 | Cc1ccc(-c2c(C)c3c(c(C)c2[C@H](OC(C)(C)C)C(=O)O)CN(C(=O)N2CC4CCCC4C2)C3)cc1 (stereo partly drawn) [Example 82, (2S)-2-(tert-butoxy)-2-(4,7-dimethyl-2-(octahydrocyclopenta[c]pyrrole-2-carbonyl)-6-(p-tolyl)isoindolin-5-yl)acetic acid] | 0.014 µM
20 | Cc1ccc(-c2c(C)c3c(c(C)c2[C@H](OC(C)(C)C)C(=O)O)CN(C(=O)N2[C@H]4CC[C@@H]2CC4)C3)cc1 [Example 83, (S)-2-(2-((1R,4R)-7-azabicyclo[2.2.1]heptane-7-carbonyl)-4,7-dimethyl-6-(p-tolyl)isoindolin-5-yl)-2-(tert-butoxy)acetic acid] | 0.006 µM
